Laboratory results reported in PubChem BioAssay (NCI).
Values joined by “and” are separate entries in the source; they are usually repeats but may differ in a detail not shown here. Equal values may be shown once.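 Cultured in 96-well plates, cells were exposed to test compound for 48 hours across five concentrations. The concentration for 50% growth inhibition is given as GI50. TGI marks complete inhibition of growth.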

Test system: MDA-MB-468 breast
Assay: growth of human tumour cells (NCI), 48 h

Q: For CCCCCOc1ccc(/C=N/Nc2cc(C)nc3ccc(Br)cc23)cc1, which GI50 is on record?
A: The GI50 was 1.83 µM.

Q: And the TGI?
A: The TGI was 3.57 µM.

Q: What does the source list for COc1cc(OC)c(/C=C/c2c3ccccc3cc[n+]2C)c(OC)c1?
A: GI50: 0.266 µM; TGI: 2.66 µM

Q: How did the GI50 turn out when O=C1NC(=O)/C(=C\c2ccccc2)C2=C1CCCC2 was run?
A: Its GI50 is 10.1 µM.

Q: What about the TGI of the same compound?
A: Its TGI is 30.2 µM.

Q: What does the source list for O=C(CSC1CCc2ccccc21)N/N=C/c1ccccc1O (centres undefined)?
A: GI50: 2.73 µM; TGI: 13.9 µM

Q: With COc1ccc(O)c(C(=O)c2ccc(C(=O)N[C@H]3CCCNC[C@@H]3NC(=O)c3ccncc3)cc2)c1F as the compound, how does the GI50 read?
A: The GI50 was 0.552 µM.

Q: And the TGI?
A: The TGI was > 25 µM.

Q: Which results are given for Cn1cc(C2=C(c3cccc(Br)c3)C(=O)NC2=O)c2ccccc21?
A: GI50: 6.7 µM; TGI: > 25 µM

Q: For Cc1[nH]c(/C=C2\C(=O)Nc3ccccc32)c(C)c1CCC(=O)O, which GI50 is on record?
A: The GI50 was 25.6 µM.

Q: What about the TGI of the same compound?
A: The TGI was 70 µM.

Q: Which results are given for O=C(CSc1nnc(-c2ccc(Cl)cc2)n1-c1ccccc1)Nc1cccc(F)c1?
A: GI50: 4.31 µM; TGI: > 100 µM

Q: Which results are given for O=C1NC(=NCCc2cccc(Cl)c2)S/C1=C\c1ccc2ncccc2c1?
A: GI50: > 25 µM; TGI: > 25 µM

Q: Which GI50 does the source give for COc1ccc(-c2ccc(-c3ccc(C(=N)N)s3)s2)cc1 here?
A: Its GI50 is 0.187 µM.

Q: What about the TGI of the same compound?
A: The TGI was 0.379 µM.

Q: For CCN1C(=O)N(CC)C2C1NN=c1s/c(=C3\C(=O)N(CC(C)(C)C)c4ccccc43)c(=O)n12 (centres undefined), which GI50 is on record?
A: The GI50 was 3.85 µM.

Q: What about the TGI of the same compound?
A: The TGI was 18.8 µM.

Q: How did the GI50 turn out when Cc1cc(C)c(/C=C2\C(=O)Nc3ccc(NC(=O)CCCCCCC(=O)NO)cc32)[nH]1 was run?
A: The GI50 was 0.367 µM.

Q: What about the TGI of the same compound?
A: Its TGI is 22.6 µM.

Q: For O=C(Nc1ccc(-n2ccc3c(NC(=O)c4ccccc4)nccc32)cc1)Nc1ccc(Cl)c(Cl)c1, which GI50 is on record?
A: Its GI50 is 1.41 µM.

Q: What about the TGI of the same compound?
A: Its TGI is 2.96 µM.

Q: Which GI50 does the source give for COCC1(CO)C(=O)C2CCN1CC2 (centres undefined) here?
A: The GI50 was 18.4 µM.

Q: What about the TGI of the same compound?
A: The TGI was 40.3 µM.

Q: For CC(=O)Oc1ccccc1C(=O)Nc1ncc([N+](=O)[O-])s1, which GI50 is on record?
A: Its GI50 is 1.93 µM.

Q: What about the TGI of the same compound?
A: Its TGI is 7.64 µM.

Q: COc1ccc(-n2c(C)cc(-c3ccccc3)c2C)cc1 was tested. Which GI50 did it give?
A: The GI50 was 1.31 µM.

Q: And the TGI?
A: The TGI was 3.47 µM.

Q: Which GI50 does the source give for CCOC(=O)c1c(NC(=O)c2cccc(C(F)(F)F)c2)sc2c(CN(C)C)c(O)ccc12 here?
A: The GI50 was 1.72 µM.

Q: What about the TGI of the same compound?
A: Its TGI is 3.8 µM.

Q: O=C(NNc1nc2cc(F)c(F)cc2n2c(CN3CC4CNCC4C3)ccc12)c1cnccn1 (centres undefined) was tested. Which GI50 did it give?
A: Its GI50 is 1.34 µM.

Q: And the TGI?
A: Its TGI is 6.54 µM.

Q: COC(=O)[C@@H](C)C[C@H](Cc1ccccc1)NC(=O)c1csc([C@@H](C[C@H](C(C)C)N(C)C(=O)[C@@H](NC(=O)[C@H]2CCCCN2C)C2CCCCC2)OC(C)=O)n1 was tested. Which GI50 did it give?
A: The GI50 was 0.000311 µM and 0.0025 µM.

Q: And the TGI?
A: The TGI was > 25 µM.

Q: What does the source list for CN(CCO)c1ccc(N2Cc3ccccc3OC3=C2C(=O)c2c(O)ccc(O)c2C3=O)cn1?
A: GI50: 0.257 µM; TGI: 0.659 µM

Q: C#COc1cccc(Nc2c(C#N)cnc3ncc(NC(=O)CCl)cc23)c1 was tested. Which GI50 did it give?
A: Its GI50 is 12.7 µM.

Q: And the TGI?
A: Its TGI is 60.3 µM.

Q: For CCOC(=O)/C=C(/C)Sc1cc(O)c2ccccc2c1O, which GI50 is on record?
A: Its GI50 is 3.55 µM.

Q: What about the TGI of the same compound?
A: The TGI was 12.1 µM.

Q: Which GI50 does the source give for OCCCNc1nccc(-c2c(-c3ccc(F)cc3)nn3cc(C(F)(F)F)ccc23)n1 here?
A: The GI50 was 6.72 µM.

Q: And the TGI?
A: The TGI was > 20.3 µM.

Q: Cc1cc(C)c(NC(=O)c2sc3nc4c(cc3c2N)CN(Cc2ccccc2)CC4)c(C)c1 was tested. Which GI50 did it give?
A: Its GI50 is 1.78 µM.

Q: And the TGI?
A: The TGI was 88.7 µM.

Q: With CCCOc1ccc2sc(NC(=O)OC)nc2c1 as the compound, how does the GI50 read?
A: Its GI50 is 1.19 µM.

Q: And the TGI?
A: Its TGI is > 100 µM.

Q: Which results are given for C[C@H]1[C@H](C)CC[C@]2(C(=O)Nc3ccc4ncccc4c3)CC[C@]3(C)C(=CC[C@@H]4[C@@]5(C)CCCNC(C)(C)[C@@H]5CC[C@]43C)[C@H]12?
A: GI50: 1.74 µM; TGI: 3.45 µM

Q: Which GI50 does the source give for CCN(Cc1ccccc1C)c1ccc(CO)c(Cl)c1 here?
A: Its GI50 is 0.0388 µM.

Q: What about the TGI of the same compound?
A: Its TGI is 0.288 µM.

Q: C1=C\COCc2cc(ccc2OCCN2CCCC2)Nc2nccc(n2)-c2cccc(c2)COC/1 was tested. Which GI50 did it give?
A: The GI50 was 1.32 µM.

Q: What about the TGI of the same compound?
A: Its TGI is 3.79 µM.

Q: For O=C(c1ccc(/C=C/c2n[nH]c3ccccc23)cc1)N1CCNCC1, which GI50 is on record?
A: Its GI50 is 2.45 µM and 9.15 µM.

Q: What about the TGI of the same compound?
A: Its TGI is > 10 µM and 22.5 µM.

Q: What does the source list for C=C1C(=O)O[C@H]2[C@H]1CC/C(COC(=O)/C=C\C(=O)NCc1ccc(Cn3c(=O)sn(CCCC)c3=O)cc1)=C\CC[C@@]1(C)O[C@@H]21?
A: GI50: 0.348 µM; TGI: 1.39 µM

Q: Which results are given for CCn1c(=O)c2c(=O)c3c4c(oc3oc2c2ccccc21)C(=O)c1ccccc1C4=O?
A: GI50: 0.199 µM; TGI: 0.701 µM

Q: What does the source list for N=C(N)c1ccc2nc(-c3cc(CC(=O)N[C@@H](CC(=O)O)C(=O)O)cc(-c4cc(S(N)(=O)=O)ccc4O)c3O)[nH]c2c1?
A: GI50: > 100 µM; TGI: > 100 µM

Q: What does the source list for NC(=O)OCCn1cc(-c2nc(-c3c[nH]c4ncccc34)cs2)c2ccccc21?
A: GI50: 1.33 µM; TGI: 3.8 µM

Q: Which GI50 does the source give for COc1cc(/C=C/C(=O)c2cc(OC)c(OC)c(OC)c2)ccc1OCc1ccc(F)cc1 here?
A: The GI50 was 2.84 µM.

Q: What about the TGI of the same compound?
A: Its TGI is > 100 µM.

Q: What does the source list for O[C@H](c1cc(C(F)(F)F)nc2c(C(F)(F)F)cccc12)[C@@H]1CCCCN1?
A: GI50: 1.72 µM; TGI: 4.19 µM

Q: O=S(=O)(Nc1ccc(F)cc1F)c1ccc(-c2cnc(C3CC3)o2)cc1 was tested. Which GI50 did it give?
A: The GI50 was 0.39 µM.

Q: What about the TGI of the same compound?
A: Its TGI is 7.86 µM.

Q: O=C1NC(=O)C(c2cccc([N+](=O)[O-])c2)=C1Nc1cc(Cl)c(O)c(Cl)c1 was tested. Which GI50 did it give?
A: The GI50 was 12.3 µM.

Q: And the TGI?
A: Its TGI is > 25 µM.
